Assays:
[1] = Normal rat biodistribution; assay type: in vivo; conditions: i.v., male Wistar rats, Mean±SD n=3
Experimental: The resolution of a clot image is dependant on the combination of rate of incorporation of the radiopharmaceutical and its blood/tissues clearance rate. For this reason the biodistribution of several compounds has been determined in rats. Male Wistar (100-150 g) rats were injected i.v. with 0.1-0.2 ml of radiolabelled tracer solution (8 MBq/ml) and dissected at different times post-injection. The % ID in each of the selected tissues was measured. Some animals were kept in metabolism cages to be able to determine the % ID excreted in urine and faeces. The dissection times used for the majority of the agents was 2, 15, 30, 60, 240 min. Data are shown as % ID, Mean±SD, (n=3).

[2] = target: T1, human plasma clots (Homo sapiens, UniProt P00488); assay: Incorporation into human plasma clots (in vitro plasma clot assay); assay type: biochemical; conditions: for % specific uptake*: % retained with thrombin − % retained no thrombin; for % retained in plasma clot assay (with thrombin): human plasma with thrombin and calcium chloride, 60 minutes, ca. 20° C.
T1 construct: Factor XIII is transformed into its active form Factor XIIIa by thrombin in the presence of calcium ions; from tissue; host or cells: human plasma, clotted in vitro with thrombin and calcium chloride
T1 sequence (P00488 39-732): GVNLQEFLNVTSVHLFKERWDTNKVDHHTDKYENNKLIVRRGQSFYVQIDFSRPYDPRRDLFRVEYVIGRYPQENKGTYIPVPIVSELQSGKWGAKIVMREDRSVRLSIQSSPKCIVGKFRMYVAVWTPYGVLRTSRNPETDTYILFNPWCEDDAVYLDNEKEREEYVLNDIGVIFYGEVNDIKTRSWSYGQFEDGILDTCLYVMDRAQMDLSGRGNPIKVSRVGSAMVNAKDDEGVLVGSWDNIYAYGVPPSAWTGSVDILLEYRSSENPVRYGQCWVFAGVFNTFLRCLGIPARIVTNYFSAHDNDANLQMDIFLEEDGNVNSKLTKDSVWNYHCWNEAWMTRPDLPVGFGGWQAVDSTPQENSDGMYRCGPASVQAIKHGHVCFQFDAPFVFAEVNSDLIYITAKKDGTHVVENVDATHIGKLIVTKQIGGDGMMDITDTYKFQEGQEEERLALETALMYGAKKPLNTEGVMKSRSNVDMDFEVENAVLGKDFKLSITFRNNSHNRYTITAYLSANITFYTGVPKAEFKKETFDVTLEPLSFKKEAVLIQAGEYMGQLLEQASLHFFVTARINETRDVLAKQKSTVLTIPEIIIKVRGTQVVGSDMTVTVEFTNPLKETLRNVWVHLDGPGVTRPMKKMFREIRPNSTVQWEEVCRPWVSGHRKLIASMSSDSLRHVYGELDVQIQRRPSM
Experimental: (§1) Incorporation of radiolabelled substrates into fibrin was investigated by induction of an in vitro human plasma clot in the following manner. To a siliconised 5 ml glass vial was added, (a) 800 μl of Tris(hydroxymethyl)aminomethane buffered saline pH 7.5 containing calcium chloride (50 mM Tris, 150 mM sodium chloride, 4 mM calcium chloride.), (b) 40 μl of physiological salt solution containing 100 units of thrombin per ml, (c) 400 μl of human plasma containing the radiolabelled substrate at a concentration of typically 10 kBq/ml. To aid induction of clot a roughened glass rod was added to the reaction vial. Control vials were prepared similarly but with the omission of thrombin and calcium chloride.
(§2) The proportion of total radioactivity was calculated by counting in suitable detection apparatus.
(§3) The fraction of radioactivity retained on the filter, after subtraction of the non-specific binding determined from the control, is a measure of incorporation into the filtered clots.

[3] = system: human plasma clots; assay: as above; assay type: biochemical; conditions: control vials without thrombin and calcium chloride, 60 minutes
Experimental: as §1, §2, §3

[4] = target: T2, Factor XIIIa (Homo sapiens, UniProt P00488); assay: Factor XIIIa dependency of incorporation (dimethylcasein uptake, normal vs Factor XIII deficient plasma); assay type: biochemical; conditions: 1 KBq/ml, 60 minutes; uptake in normal plasma minus Factor XIII deficient plasma
T2 construct: Factor XIII is transformed into its active form Factor XIIIa by thrombin in the presence of calcium ions; from tissue; host or cells: human plasma
T2 sequence (P00488 39-732 limits assumed): T1 sequence (P00488 39-732)
Experimental: The assay was changed by replacing the mercaptoethanol with aprotinin at a final concentration of 2 μg/ml, and dimethylcasein (DMC) was used instead of casein.

[5] = system: clots induced in rat inferior vena cava; assay: Incorporation into clots induced in a rat model (rat inferior vena cava model); assay type: in vivo; conditions: rat IVC model; for Clot/Blood / Clot/Heart / Clot/Liver / Clot/Lung: 60 min; for % ID/g (clot uptake) / Relative conc (cpm/g of clot by dose/g animal): compound injected 5 min post-induction, clot removed after 60 min
Experimental: The rats (Male Wistar, 250-350 g) were anaesthetised with 15% urethane. After laparotomy, the vena cava was isolated and freed of surrounding fat tissue. […] The average weight of the clots formed in this model was around 27 mg, n=32, (5-50 mg range). The so compounds were injected 5 min post-induction. After 60 min the animals were sacrificed and the clot removed, weighed and counted. Other tissues e.g. blood, lung, heart, were also dissected and counted. The uptake of tracer into the clot was determined as the relative concentration (cpm/g of clot by dose/g animal ) and clot to background tissue.

CC(=NO)C(C)(C)NCC(C)(CNC(=O)C1CCC(CNC(=O)c2ccc(S(=O)(=O)NCCCCCN)cc2)CC1)CNC(C)(C)C(C)=NO (centres unmarked) [Compound 8, 3,3,6,9,9-pentamethyl-6-N[4-N-{(4-N-(5-aminopentyl)amidosulphonyl)benzoyl}aminomethylcyclohexylcarbonyl]aminomethyl-4,8-diazaundecane-2,10-dione dioxime]
% ID Blood ([1]; 2 min post-injection): 22.59 ± 1.44 % ID | % ID GI Tract ([1]; 2 min post-injection): 9.75 ± 1.2 % ID | % ID Heart ([1]; 2 min post-injection): 0.63 ± 0.17 % ID | % ID Kidney ([1]; 2 min post-injection): 4.56 ± 0.29 % ID | % ID Liver ([1]; 2 min post-injection): 19.6 ± 2.16 % ID | % ID Lung ([1]; 2 min post-injection): 1.61 ± 0.06 % ID | % ID Muscle ([1]; 2 min post-injection): 21.6 ± 2.08 % ID | % ID Urine ([1]; 2 min post-injection): 0.13 ± 0.06 % ID | % ID Blood ([1]; 15 min post-injection): 1.22 ± 0.06 % ID | % ID GI Tract ([1]; 15 min post-injection): 70.9 ± 1.3 % ID | % ID Heart ([1]; 15 min post-injection): 0.06 ± 0.04 % ID | % ID Kidney ([1]; 15 min post-injection): 1.9 ± 0.95 % ID | % ID Liver ([1]; 15 min post-injection): 10.0 ± 0.86 % ID | % ID Lung ([1]; 15 min post-injection): 0.21 ± 0.03 % ID | % ID Muscle ([1]; 15 min post-injection): 3.97 ± 0.56 % ID | % ID Urine ([1]; 15 min post-injection): 6.23 ± 1.23 % ID | % ID Blood ([1]; 30 min post-injection): 0.55 ± 0.19 % ID | % ID GI Tract ([1]; 30 min post-injection): 80.7 ± 2.4 % ID | % ID Kidney ([1]; 30 min post-injection): 1.8 ± 0.42 % ID | % ID Liver ([1]; 30 min post-injection): 4.53 ± 0.5 % ID | % ID Lung ([1]; 30 min post-injection): 0.1 ± 0.04 % ID | % ID Muscle ([1]; 30 min post-injection): 1.6 ± 0.82 % ID | % ID Urine ([1]; 30 min post-injection): 7.18 ± 1.24 % ID | % ID Blood ([1]; 60 min post-injection): 0.39 ± 0.05 % ID | % ID GI Tract ([1]; 60 min post-injection): 85.4 ± 0.12 % ID | % ID Heart ([1]; 60 min post-injection): 0.03 ± 0.01 % ID | % ID Kidney ([1]; 60 min post-injection): 1.06 ± 0.22 % ID | % ID Liver ([1]; 60 min post-injection): 2.63 ± 0.38 % ID | % ID Lung ([1]; 60 min post-injection): 0.08 ± 0.01 % ID | % ID Muscle ([1]; 60 min post-injection): 1.22 ± 0.28 % ID | % ID Urine ([1]; 60 min post-injection): 7.71 ± 0.49 % ID | % ID Blood ([1]; 240 min post-injection): 0.1 ± 0.02 % ID | % ID GI Tract ([1]; 240 min post-injection): 87.5 ± 2.8 % ID | % ID Heart ([1]; 240 min post-injection): 0.01 ± 0.02 % ID | % ID Kidney ([1]; 240 min post-injection): 0.85 ± 0.08 % ID | % ID Liver ([1]; 240 min post-injection): 1.39 ± 0.29 % ID | % ID Lung ([1]; 240 min post-injection): 0.05 ± 0.02 % ID | % ID Muscle ([1]; 240 min post-injection): 0.22 ± 0.31 % ID | % ID Urine ([1]; 240 min post-injection): 8.55 ± 2.76 % ID | % specific uptake* [2]: 18.4% | % retained in plasma clot assay (with thrombin) [2]: 23% | % retained in plasma clot assay (no thrombin) [3]: 4.6% | % specific DMC casein uptake [4]: 45% | Clot/Blood [5]: 4.1 | Clot/Heart [5]: 8.1 | Clot/Liver [5]: 0.40 | Clot/Lung [5]: 4.4 | % ID/g (clot uptake) [5]: 0.17 ± 0.09 % ID/g | Relative conc (cpm/g of clot by dose/g animal) [5]: 0.59 ± 0.31

CC(=NO)C(C)(C)NCC(C)(CN)CNC(C)(C)C(C)=NO (centres unmarked) [Compound 2, 6-aminomethyl-3,3,6,9,9-pentamethyl-4,8-diazaundecane-2, 1 0-dione dioxime]
% specific uptake* [2]: 1.7% | % retained in plasma clot assay (with thrombin) [2]: 2% | % retained in plasma clot assay (no thrombin) [3]: 0.3%

CC(=NO)C(C)(C)NCC(C)(CNC(=O)c1ccc(S(=O)(=O)NCCSCCN)cc1)CNC(C)(C)C(C)=NO (centres unmarked) [Compound 9, 3,3,6,9,9-pentamethyl-6-(4-(N-[(S-aminoethyl)thioethyl]amidosulphonyl)benzamidomethyl)4,8-diazaundecane-2,10-dione dioxime]
% specific uptake* [2]: 15.5% | % retained in plasma clot assay (with thrombin) [2]: 20% | % retained in plasma clot assay (no thrombin) [3]: 4.5% | % specific DMC casein uptake [4]: 29%

CC(=NO)C(C)(C)NCC(C)(CNC(=O)c1ccc(NC(=O)CCCCCN)cc1)CNC(C)(C)C(C)=NO (centres unmarked) [Compound 6, 3,3,6,9,9-pentamethyl-6-N-[4-N-(6aminohexanoyl)aminobenzoyl]aminomethyl-4,8-diazaundecane-2.10-dione dioxime]
% specific uptake* [2]: 1.5% | % retained in plasma clot assay (with thrombin) [2]: 2% | % retained in plasma clot assay (no thrombin) [3]: 0.5% | % specific DMC casein uptake [4]: 13%

CC(=NO)C(C)(C)NCC(C)(CNC(=O)N1CCN(CNC(=O)c2ccc(S(=O)(=O)NCCCCCN)cc2)CC1)CNC(C)(C)C(C)=NO (centres unmarked) [Compound 11, 3,3,6,9,9-pentamethyl-6-N-[4-N-{4-(N-(5-aminopentyl)amidosulphonyl)benzoyl}aminomethylpiperazinylcarbonyl]aminomethyl-4,8-diazaundecane-2,10-dione dioxime]
% specific uptake* [2]: 12.8% | % retained in plasma clot assay (with thrombin) [2]: 16% | % retained in plasma clot assay (no thrombin) [3]: 3.2% | % specific DMC casein uptake [4]: 24%

CC(=NO)C(C)(C)NCC(C)(CNC(=O)[C@@H](Cc1ccccc1)NC(=O)CCCCCN)CNC(C)(C)C(C)=NO (stereo partly drawn) [Compound 5, 3,3,6,9,9-pentamethyl-6-N-[N-(6-aminohexanoyl)-D-phenylalanyl]aminomethyl-4,8-diazaundecane-2,10-dione dioxime]
% specific uptake* [2]: 4.1% | % retained in plasma clot assay (with thrombin) [2]: 6% | % retained in plasma clot assay (no thrombin) [3]: 1.9% | % specific DMC casein uptake [4]: 10%

CC(=O)SCC(=O)NCC(=O)NCC(=O)NCC(=O)NCCCNC(=O)c1ccc(S(=O)(=O)NCCCCCN)cc1 [Compound 23, N-[S-acetyl-mercaptoacatylglycylglycylglycyl)-N′-(4-N-(5-aminopentyl)amidosulphonyl)benzoyl propane-1,3-diamine]
% specific uptake* [2]: 14.2% | % retained in plasma clot assay (with thrombin) [2]: 16% | % retained in plasma clot assay (no thrombin) [3]: 0.8% | % specific DMC casein uptake [4]: 24.5%

1-(4-(N-(5-aminopentyl)-amidosulphonyl)benzyl)-1,4,8,11-tetraazacyclotetradecane [Compound 20]
% retained in plasma clot assay (no thrombin) [3]: 0.6%

3,3,6,9,9-pentamethyl-6-N-[α-N-(4-N-(5-aminopentyl)amidosulphonyl)benzoyl)amino-polethyleneglycol)-ω-carbonyl]aminomethyl-4,8-diazaundecane-2,10-dione dioxime [Compound 14]
% specific uptake* [2]: 27.8% | % retained in plasma clot assay (with thrombin) [2]: 35% | % retained in plasma clot assay (no thrombin) [3]: 7.2% | Clot/Blood [5]: 1.3 | Clot/Heart [5]: 2.8 | Clot/Liver [5]: 2.6 | Clot/Lung [5]: 1.5 | % ID/g (clot uptake) [5]: 0.18 ± 0.03 % ID/g | Relative conc (cpm/g of clot by dose/g animal) [5]: 0.54 ± 0.11

CC(=NO)C(C)(C)NCC(C)(CNC(=O)[C@@H](CO)NC(=O)[C@@H](CO)NC(=O)[C@@H](CO)NC(=O)c1ccc(S(=O)(=O)NCCCCCN)cc1)CNC(C)(C)C(C)=NO (stereo partly drawn) [Compound 10, 3,3,6,9,9-pentamethyl-6-N-[N-(4-N-(5aminopentyl)amidosulphonyl)benzoyl-D-serine-D-serine-D-serine]aminomethyl-4,8-diazaundecane-2,10-dione dioxime]
% specific uptake* [2]: 4.7% | % retained in plasma clot assay (with thrombin) [2]: 5% | % retained in plasma clot assay (no thrombin) [3]: 0.3% | % specific DMC casein uptake [4]: 6%
